The text below walks through data of patent US7592009B2, “Polypeptide ligands for targeting cartilage and methods of use thereof” (Ecole Polytechnique Federale de Lausanne (EPFL), priority 2006, dated 2009).

Where no end group is shown, it is not given here.

The subject of one assay is articular cartilage. The experiment in a line: Competitive binding of free polypeptide or nanoparticles against phage clone C1-3 on articular cartilage. Also noted: species or system bovine. The settings on record: for decrease of phage titers versus control without polypeptide: 10 μM polypeptide, FIG. 3. The protocol:
Cartilage grafts were harvested with 8 and 4 mm biopsy cutters (two-sided surface 1 cm^2 and 0.25 cm^2). A slice with the intact articular surface was removed to expose the phages only to the cartilage matrix below the surface. Affinity selection was preformed in polystyrene 48-well plates, which were blocked for nonspecific adhesion with a blocking solution containing 1% BSA for 2 hours prior to screening. A total of 5 screening rounds was carried out. In the first round 10^13 and in subsequent rounds 10^12 phage virions per ml were exposed to the cartilage graft, washed with PBS/Tween 20 and eluted at low pH. While the first round was supposed to give a high yield at low stringency, subsequent rounds were carried out with increasing stringency to select stronger binders. Conditions were increased from 4 hours of binding at RT and washing with PBS/0.1% Tween to 30 minutes binding at 37° C. with 220 RPM, washing with PBS/1% Tween 20 and the cartilage surface decreased from 1 cm^2 to 0.25 cm^2 in round five. Eluted phage was amplified overnight in E. coli strain TG1 in 2×YT medium and purified by two times PEG/NaCl (2M, 25%) precipitation. In the first round of screening, negative screens against the intact articular surface as well as synovial fluid (50% diluted in PBS to lower viscosity) were carried out in order to eliminate phages binding to these targets. Quantitative titer counts were obtained by spot titering of 15 μl of phage/bacterial culture onto LB-agar/tetracyclin plates and are given in transducing units(TU)/ml. The polypeptide sequences of affinity selected phage specific to the articular cartilage matrix was determined by DNA sequencing (Microsynth AG, Balgach, Switzerland) using the sequencing primer 5′-CAT GTA CCG TAA CAC TGA G (SEQ ID NO:5). Binding specificity was determined by exposing selected phage clones (10^8 TU/ml) to articular cartilage (0.25 cm^2) with and without synovial fluid, to synovial membrane (3×4 mm, 0.24 cm^2) and to polystyrene after blocking. […] The phage clones were identified by DNA sequencing and the corresponding titer counts calculated. For comepetetive binding against free polypeptide or nanoparticles and to obtain a dose-response curve, 10^8 TU/ml of phage and its free polypeptide in different concentrations or nanoparticles were mixed, exposed to articular cartilage and titer counts determined. […]
Based on affinity selection and the binding assays reported herein, the 6-mer polypeptide insert WYRGRL (SEQ ID NO:1) of clone C1-3 as well as its scrambled mismatch YRLGRW (SEQ ID NO:6) were synthesized on solid resin using standard Fmoc chemistry. […] A dose-response curve was determined by serial dilutions of the polypeptide ranging from 50 nM to 10 μM and mixing them with 10^8 TU/ml of phage. […]

In the next assay the target is T1, MMP-2 (Homo sapiens, UniProt P08253).
T1 sequence (P08253 110-660): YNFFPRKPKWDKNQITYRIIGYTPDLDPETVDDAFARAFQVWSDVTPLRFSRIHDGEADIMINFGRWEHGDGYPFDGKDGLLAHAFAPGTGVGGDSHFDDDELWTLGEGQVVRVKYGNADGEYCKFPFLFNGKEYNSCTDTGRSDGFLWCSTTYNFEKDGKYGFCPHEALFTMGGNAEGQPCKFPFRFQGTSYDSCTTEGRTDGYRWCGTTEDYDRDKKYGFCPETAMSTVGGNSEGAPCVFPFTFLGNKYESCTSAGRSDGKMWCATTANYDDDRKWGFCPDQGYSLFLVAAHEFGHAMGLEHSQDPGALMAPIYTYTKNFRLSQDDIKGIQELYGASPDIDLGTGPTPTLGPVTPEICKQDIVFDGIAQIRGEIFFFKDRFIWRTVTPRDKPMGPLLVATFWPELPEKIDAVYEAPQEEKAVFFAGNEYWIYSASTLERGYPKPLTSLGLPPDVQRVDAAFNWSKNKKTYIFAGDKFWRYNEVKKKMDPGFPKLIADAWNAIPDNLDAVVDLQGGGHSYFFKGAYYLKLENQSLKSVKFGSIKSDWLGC
Briefly: MMP-2 zymography. It counts as biochemical.

Usually IC50 stands for the concentration that gives 50% inhibition.

With “WYRGRLC [synthetic polypeptide: insert WYRGRL of clone C1-3 with a cysteine added to the C-terminus]”, in the assay on articular cartilage, the “decrease of phage titers versus control without polypeptide” value is reported as roughly 100 fold. For the same molecule, on articular cartilage (polypeptide 50 nM to 10 μM mixed with 10^8 TU/ml phage C1-3, estimated from curve in FIG. 2, read-out: IC50, inhibition of cartilage binding of phage C1-3), the IC50 was roughly 200 nM. The “decrease of titer counts of recovered phage over the dose-response curve” value in the assay with articular cartilage (polypeptide increased from 50 nM to 10 μM, FIG. 2) is reported as “two orders of magnitude”.

On to “YRLGRWC (Ac-YRLGRWC) [scrambled mismatch polypeptide of WYRGRL with C-terminal cysteine, reference compound]”, for which, in the assay with articular cartilage, the “decrease of phage titers versus control without polypeptide” value was “did not result in a significant decrease in phage titer”.

B1: trTIMP-3: fusion protein of N-TIMP-3 (Cys24 to Asn 143) containing WYRGRL at the C-terminus (protein)
chain: CTCSPSHPQDAFCNSDIVIRAKVVGKKLVKEGPFGTLVYTIKQMKMYRGFSKMPHVQYIHTEASESLCGLKLEVNKYQYLLTGRVYEGKMYTGLCNFVERWDHLTLSQRKGLNYRYHLGCGGGWYRGRL
For the molecule B1, the “inhibition of MMP-2 activity” value with MMP-2 (equimolar amount of trTIMP-3) was “completely inhibits”. Also, in the assay with MMP-2 (inferred from MMP-2 zymography at equimolar amount), the “activity of the purified protein” value is roughly 100%.
